# Assay results: patent US20050202423A1, “Method for identifying compounds or lead structures against rna target motifs and rna/protein interactions” (priority 2000, published 2005)
# Where two headings read alike, the source gives them in different places.
# B1: AIR (aptamer-inhibited ribozyme) (ssRNA)
# RNA: GGGACUCGCUUCGGCUUGAGAUACCAAAAAGGGUCCUCUGAUGAGGCCGUUAGGCCGAAACUCGU
# B2: RRR (Rev-responsive ribozyme, RBE in stem II) (ssRNA)
# RNA: GGGUCCUCUGAUGAGCUCUGGGCGCAGCUUCGGCUGACGGUACUUGCGAAACUCGU
# Legend:
# hammerhead ribozyme HHR = assay: HHR cleavage reaction (internal control, FRET); type: biochemical
# Protocol: (§1) Cleavage reactions with multiple turnover were performed at 32° C. in a test buffer containing 50 mM Tris (pH 7.9) and 25 mM NaCl. The total volume of the reactions was 50 μl in plates with 96 flat bottom wells. The fluorescence measurements were performed at an excitation wavelength of 489 nm, FAM emission at 520 nm and with the fluorescence detector Ascent Fluoroscan FL, as described by Jenne, A. et al., Rapid identification and characterization of hammerhead-ribozyme inhibitors using fluorescence-based technology, Nat Biotechnol 19, 56-61 (2001). Ribozyme (10 nM) and FRET-labeled substrate (200 nM) were first incubated in test buffer at room temperature for 5 min, followed by optional addition of Rev and/or antibiotic. The reactions were then incubated for 5 min at 32° C. and started by the addition of MgCl2 to a final concentration of 8 mM, using the dispensing function of the fluorometer. Negative controls were always included for reactions without ribozyme and were subtracted after the measurements.
# (§2) Two different screening experiments were performed, one using the RRR reporter construct and the other using AIR. […] Each reaction which contained antibiotics also contained Rev peptide. For each antibiotic, three different reactions were performed: HHR, reporter construct (RRR or AIR), negative controls, which only contained antibiotic and Rev and substrate. The antibiotic concentrations were 100 μM in each case. After subtraction of the negative control, the rise in fluorescence in the first five minutes, corresponding to the initial rate of reaction, was divided by the rise in fluorescence in the standard reaction without antibiotic, containing the active state of the ribozyme (see also FIG. 10).
# AIR = assay: Dependence of AIR cleavage activity on Rev (FRET ribozyme reaction); type: biochemical; settings: for EC50: read-out: Kact (activation of AIR)
# Protocol: (§3) Negative control reactions without ribozymes were subtracted.
# as §1
# RRR = assay: Dependence of RRR cleavage activity on Rev (FRET ribozyme reaction); type: biochemical; settings: for IC50: read-out: K inh (inhibition of RRR at the half maximal concentration of Rev)
# Protocol: as §3, §1
# Rev protein [1] = target: T1, Rev protein (Human immunodeficiency virus type 1 group M subtype B, UniProt P04618); assay: Surface plasmon resonance, Rev protein; type: binding, HIV; settings: 100 μM antibiotic, 25° C.
# T1 construct: the intact Rev protein and by the Rev peptide
# Protocol: (§4) 20 μl 100 μM antibiotic in test buffer was injected at 25° C., rate 10 μl/s.
# (§5) Surface plasmon resonance studies were performed with a Biocore 3000 instrument in the automatic mode.
# RRR-RNA = assay: Surface plasmon resonance, RRR-RNA surface; type: binding; settings: 100 μM antibiotic, 25° C.
# Protocol: 20 μl 100 μM antibiotic in test buffer was injected at 25° C., rate 10 μl/s. […] There is no binding to RRR-derivatized surfaces detectable. Coumermycin only binds to Rev, but not to ribozymes. FIG. 13b illustrates the interaction between novobiocin, rosamicin, griseofulvin, streptolydigin and patulin with surfaces derivatized with Rev protein.
# Surface plasmon resonance studies were performed with a Biocore 3000 instrument in the automatic mode. Rev protein and peptide surfaces were prepared by injection of 100 μM solutions in 60 mM NaOAc, pH 5.7 on EDC/NHS-activated CM5-Chips, which gave 1800 RU immobilized peptide and 5000 RU protein.
# Rev peptide / AIR = target: T2, Rev peptide / AIR (Human immunodeficiency virus type 1 group M subtype B, UniProt P04618); assay: AIR screen (screen 2) of antibiotics: inhibition of Rev-activated AIR; type: biochemical, HIV; settings: for AIR screen outcome (inhibition of AIR relative to HHR): 100 μM antibiotic, 250 nM Rev peptide
# T2 construct: includes aminoacids 34 to 50 of the Rev protein
# Protocol: as §1, §2
# […]. […] […].
# Rev peptide = target: T3, Rev peptide (Human immunodeficiency virus type 1 group M subtype B, UniProt P04618); assay: Surface plasmon resonance, Rev peptide; type: binding, HIV; settings: 100 μM antibiotic, 25° C.
# T3 construct: includes aminoacids 34 to 50 of the Rev protein
# Protocol: as §4, §5
# Rev peptide / RRR = target: T4, Rev peptide / RRR (Human immunodeficiency virus type 1 group M subtype B, UniProt P04618); assay: RRR screen (screen 1) of antibiotics: restoration of cleavage activity; type: biochemical, HIV; settings: 100 μM, 1 μM Rev-peptide
# T4 construct: includes aminoacids 34 to 50 of the Rev protein
# Protocol: as §1, with “Negative controls were always included for reactions without ribozyme and were subtracted after the measurements.” left out
# Two different screening experiments were performed, one using the RRR reporter construct and the other using AIR. […] After subtraction of the negative control, the rise in fluorescence in the first five minutes, corresponding to the initial rate of reaction, was divided by the rise in fluorescence in the standard reaction without antibiotic, containing the active state of the ribozyme (see also FIG. 10). […]
# reverse transcriptase = reverse transcriptase (Human immunodeficiency virus type 1 group M subtype B, UniProt P04585); assay: Standard transcriptase assay (specificity control); type: biochemical, HIV-1; settings: 2.5 μM
# Protocol: As a control of the target protein reverse transcriptase, another nucleic acid binding protein from HIV-1 was tested, to check the specificity of the identified Rev-binding antibiotics.
# Rev protein [2] = target: T5, Rev protein (HIV-1, UniProt P04618 P04618:1-116); assay: competition; 2 uM RNA competes with IRK-1 for 200 nM Rev; 10 mM HEPES pH 7.4, 100 mM NaCl, 10 mM MgCl2; settings: tags: full-length
# Rev protein [3] = target: T5, Rev protein; assay: cleavage_in_vitro; K act of ribozyme; 8 mM MgCl2, 32 C; settings: tags: full-length
# Rev protein [4] = target: Rev protein (HIV-1, UniProt P04618 P04618:1-116); assay: inhibition; K inh of ribozyme; 8 mM MgCl2, 32 C; settings: tags: full-length; label: biotin (SPR surface) or 5'-32P (filter); hammerhead ribozyme
molecule,measurement,setting,value
"Rev peptide: Rev peptide, which includes aminoacids 34 to 50 of the Rev protein (TRQARRNRRRRWRERQR; UniProt P04618 34-50, looked up, fragment)",concentration above which HHR is inhibited,hammerhead ribozyme HHR,more than 1 μM
same,initial activity of HHR,hammerhead ribozyme HHR; 1 μM Rev,93%
same,effect of Rev on wildtype HHR,hammerhead ribozyme HHR; 1 μM Rev-peptide,hardly affected
same,concentration above which HHR is inhibited,hammerhead ribozyme HHR; listed as Rev,above 1 μM
same,concentration above which AIR is inhibited,AIR,above 800 nM
same,effect of Rev on AIR,AIR; 250 nM Rev,activation
same,EC50,AIR,170 nM
same,effect of Rev on ribozyme RRR,RRR; 1 μM Rev-peptide,inhibition
same,IC50,RRR; Rev peptide,464 nM
COC1=CC(=O)C[C@@H](C)[C@]12Oc1c(Cl)c(OC)cc(OC)c1C2=O [griseofulvin],binding to surface derivatized with Rev protein,Rev protein [1],"Only the antibiotics novobiocin and patulin, which were identified in the course of screening, exhibited binding to Rev"
coumermycin A1,effect on wildtype HHR,hammerhead ribozyme HHR; 100 μM with 1 μM Rev-peptide,hardly affected
same,binding to RRR-derivatized surface,RRR-RNA,no binding
same,AIR screen outcome (inhibition of AIR relative to HHR),Rev peptide / AIR,Rev inhibitors
same,reversal of the action of Rev on AIR,"Rev peptide / AIR; 100 μM, 250 nM Rev",fully reversed
same,binding to surface derivatized with Rev peptide,Rev peptide,binding
same,binding to surface derivatized with Rev protein,Rev protein [1],binding
same,reversal of the action of Rev on RRR,Rev peptide / RRR,fully reversed
CC[C@H]1OC(=O)C[C@@H](O)[C@H](C)[C@@H](O[C@@H]2O[C@H](C)C[C@H](N(C)C)[C@H]2O)[C@@H](CC=O)C[C@@H](C)C(=O)/C=C/[C@]2(C)O[C@H]2[C@@H]1C [rosamicin],binding to surface derivatized with Rev protein,Rev protein [1],"Only the antibiotics novobiocin and patulin, which were identified in the course of screening, exhibited binding to Rev"
Nc1ccn([C@H]2CC[C@@H](COP(=O)(O)OP(=O)(O)OP(=O)(O)O)O2)c(=O)n1 [ddCTP],inhibition of reverse transcriptase,reverse transcriptase,total inhibition
C=C(NC(=O)c1csc(-c2nc3c(cc2O)-c2nc(cs2)C(=O)NC(C(C)O)C(=O)N/C(=C\C)c2nc(cs2)C(=O)NC2CC(O)C(=O)OCc4cccc5[nH]c(c(C)c45)C(=O)SCC(NC(=O)c4csc2n4)c2nc-3cs2)n1)C(N)=O (centres unmarked) [nosiheptide],AIR screen outcome (inhibition of AIR relative to HHR),Rev peptide / AIR,Rev inhibitors
CO[C@@H]1[C@@H](OC(N)=O)[C@@H](O)[C@H](Oc2ccc3c(O)c(NC(=O)c4ccc(O)c(CC=C(C)C)c4)c(=O)oc3c2C)OC1(C)C [novobiocin],binding to surface derivatized with Rev protein,Rev protein [1],exhibited binding
O=C1C=C2C(=CCOC2O)O1 (centres unmarked) [patulin],AIR screen outcome (inhibition of AIR relative to HHR),Rev peptide / AIR,Rev inhibitors
same,binding to surface derivatized with Rev protein,Rev protein [1],exhibited binding
CNC(=O)[C@@H](C)[C@H]1C(=O)/C(=C(O)/C=C/C(C)=C/[C@@H](C)[C@H]2O[C@@]3(C)O[C@H](C=C[C@@]34CO4)[C@@H]2C)C(=O)N1[C@@H]1CC[C@H](O)[C@H](C)O1 [streptolydigin],binding to surface derivatized with Rev protein,Rev protein [1],"Only the antibiotics novobiocin and patulin, which were identified in the course of screening, exhibited binding to Rev"
Rev protein: intact Rev protein of HIV,concentration at which AIR is still activated,AIR,above 5 μM
same,inhibition of AIR by high concentrations,AIR,no observed inhibition
same,EC50,AIR,192 nM
same,concentration above which RRR is inhibited,RRR,above 1 μM
same,IC50,RRR; Rev protein,1700 nM
GGGAGGUGGACUCCAGCUUCGGCUGUUGAGAUACACC (ssRNA) [Seq 5],binding result,Rev protein [2],binds
B1,apparent K (half saturation),Rev protein [3],192 nM
B2,apparent K (half saturation),Rev protein [4],1700 nM
